From article PMC9249674, “A small-molecule Skp1 inhibitor elicits cell death by p53-dependent mechanism” (iScience, 2022)

Target: T1, Skp1 interaction with Skp2 (Homo sapiens, UniProt P63208)
T1 construct: host or cells: HEK293
Test: Cell-based FRET assay in HEK293 cells
Conditions: 4 hrs, increasing concentrations

T1 sequence (P63208 whole entry): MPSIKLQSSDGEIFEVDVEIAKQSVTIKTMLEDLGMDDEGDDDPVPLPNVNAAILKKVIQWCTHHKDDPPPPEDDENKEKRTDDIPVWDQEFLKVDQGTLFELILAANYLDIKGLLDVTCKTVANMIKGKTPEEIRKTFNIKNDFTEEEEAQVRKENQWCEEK

Nc1ccc(-c2nc3ccccc3c3[nH]c4ccccc4c23)cc1 [Z0933M]
inhibition of Skp1-Skp2 interaction (FRET ratio): significant inhibition
